According to patent publication US12115224B2, “Polypeptide conjugates for intracellular delivery of stapled peptides” (Ohio State Innovation Foundation, priority 2017, dated 2024):
Values joined by “and” are separate entries in the source; they are usually repeats but may differ in a detail not shown here. Identical values can stand only once. Numbered stars: 1 amine (or outer) side, 2 acyl side, 3 side chain; on linkers, the order of the positions; unused ones are H or OH. Bridge positions count the residues as written; N and C are the ends. Square brackets hold non-standard residues; d marks the D form. Peptide text beside a SMILES is read from it. I, II: the chains in the order shown. * marks the point of attachment. X2 = NC(=O)[C@H](CCCCNC(=O)c1cc(C[*:1])cc(C[*:2])c1)NC(=O)COCCOCCN[*:3]; X1 = O=C1OC2(c3ccc(C(=O)*)cc31)c1ccc3cc(O)ccc3c1Oc1c2ccc2cc(O)ccc12; X3 = NC(=O)[C@H](CCCCNC(=O)CON=C(C[*:1])C[*:2])NC(=O)COCCOCCN[*:3]; FITC = O=C1OC2(c3ccc(O)cc3Oc3cc(O)ccc32)c2ccc(NC(=S)*)cc21; 2Nal = N[C@@H](Cc1ccc2ccccc2c1)C(=O)O; mXylylene = c1cc(C[*:1])cc(C[*:2])c1; NF = 5(6)-carboxynaphthofluorescein; CH2COCH2 = O=C(C[*:1])C[*:2]; hCys = N[C@@H](CCS)C(=O)O; K(NF) = not defined here; AEEA = NCCOCCOCC(=O)O; βAla = NCCC(=O)O

What was measured:
HCT116 p53+/+ = assay: MTT viability assay, HCT116 WT p53; type: cell-based, human; conditions: 0-12.5 μM, 48 h, 10% FBS
Procedure: (§1) Peptides 4 and 5 were tested for anticancer activity against human colon carcinoma cell lines harboring WT (HCT116 p53+/+) and mutant p53 genes (HCT116 p53−/−) using the MTT viability assay. […] See Vassilev, L. T., et al., Science, 303, 844-848 (2004).
(§2) MTT Assay. HCT116 p53 wild type and HCT116 p53^−/− cells were seeded in 96-well plate with 3×10^3 cells per well, and allowed to grow overnight. Different concentrations of peptides (0-12.5 μM) were added to the cells in McCoy's 5A medium supplemented with 10% FBS and 1% penicillin/streptomycin and incubated at 37° C. for 48 h in the presence of 5% CO2. After that, 10 μL of an MTT stock solution (5 mg/mL) was added into each well and the plate was incubated at 37° C. for 4 h. 100 μL of SDS-HCl solubilizing solution was added and the plate was incubated at 37° C. overnight. The absorbance of the formazan product formed was measured at 570 nm on a Tecan microtiter plate reader.

HCT116 p53−/− = assay: MTT viability assay, HCT116 p53-/-; type: cell-based, human; conditions: 0-12.5 μM, 48 h, 10% FBS
Procedure: as §1, §2

MDM2 [1] = molecular target: T1, MDM2 (Homo sapiens, UniProt Q00987); assay: Fluorescence anisotropy (FA)-based competition with FITC-labeled peptide 1 for binding to MDM2; conditions: unlabeled peptides 4 and 5
Text: Expression and Purification of GST-MDM2.

MDM2 [2] = molecular target: T1, MDM2; assay: Direct binding of FITC-labeled peptides to MDM2 (KD); conditions: relative to the parent peptide
HeLa cells = assay: Cytosolic entry efficiency of NF-labeled peptides by flow cytometry; conditions: NF-labeled peptide 5 μM, 2 h, 37° C., 10% FBS; relative to CPP9 (100%)
Procedure: Flow Cytometry. HeLa cells were seeded in 12-well plates at 1.5×10^5 cells per well for 24 h. The next day, naphthofluorescein-labelled peptide (5 μM) was added to the cells in DMEM medium supplemented with 10% fetal bovine serum (FBS) and 1% penicillin/streptomycin and the cells were incubated at 37° C. for 2 h in the presence of 5% CO2. The medium containing the peptide was removed and the cells were washed with DPBS twice. […] Data were analyzed using the Flowjo software (Tree Star).

fold decrease of MDM2 binding affinity (MDM2 [2]) [fold]	Compound	Cellular Uptake (MFI^NF, %) (HeLa cells)	further results
~2.5	CC(=O)N[C@@H](CC(C)C)C(=O)N[C@H](C(=O)N[C@@H](Cc1ccccc1)C(=O)N[C@H]1CSCc2cccc(c2)CSC[C@@H](C(=O)N[C@@H](CCC(N)=O)C(=O)N[C@@H](CC(C)C)C(=O)N[C@H](C(=O)N[C@@H](CO)C(=O)NCCOCCOCC(=O)N[C@@H](CCCCNC(=O)c2ccc3c(c2)C(=O)OC32c3ccc4cc(O)ccc4c3Oc3c2ccc2cc(O)ccc32)C(N)=O)[C@@H](C)O)NC(=O)[C@H](Cc2c[nH]c3ccccc23)NC(=O)[C@H](Cc2ccc(O)cc2)NC(=O)[C@H](Cc2c[nH]cn2)NC1=O)[C@@H](C)O [Peptide 6] (Ac-LTFCHYWCQLTS[AEEA]K(X1)-NH2; linker 4-8 via mXylylene)	–	–
~2	CC(=O)N[C@@H](CC(C)C)C(=O)N[C@H](C(=O)N[C@@H](Cc1ccccc1)C(=O)N[C@H]1CSCc2cc(cc(C(=O)NCCCC[C@H](NC(=O)COCCOCCNC(=O)CC[C@@H]3NC(=O)[C@@H](CCCNC(=N)N)NC(=O)[C@H](CCCNC(=N)N)NC(=O)[C@@H](CCCNC(=N)N)NC(=O)[C@H](CCCNC(=N)N)NC(=O)[C@H](Cc4ccc5ccccc5c4)NC(=O)[C@@H](Cc4ccccc4)NC3=O)C(N)=O)c2)CSC[C@@H](C(=O)N[C@@H](CCC(N)=O)C(=O)N[C@@H](CC(C)C)C(=O)N[C@H](C(=O)N[C@@H](CO)C(=O)NCCOCCOCC(=O)N[C@@H](CCCCNC(=O)c2ccc3c(c2)C(=O)OC32c3ccc4cc(O)ccc4c3Oc3c2ccc2cc(O)ccc32)C(N)=O)[C@@H](C)O)NC(=O)[C@H](Cc2c[nH]c3ccccc23)NC(=O)[C@H](Cc2ccc(O)cc2)NC(=O)[C@H](Cc2c[nH]cn2)NC1=O)[C@@H](C)O [Peptide 7] (I: Ac-LTFCHYWCQLTS[AEEA]K(X1)-NH2 / II: cyclo([2Nal]R[dR]R[dR]E[dF]); linker I:4-I:8-II:6 via X2)	–	–
~8	CC(=O)N[C@@H](CC(C)C)C(=O)N[C@H](C(=O)N[C@@H](Cc1ccccc1)C(=O)N[C@H]1CCSCc2cc(cc(C(=O)NCCCC[C@H](NC(=O)COCCOCCNC(=O)CC[C@@H]3NC(=O)[C@@H](CCCNC(=N)N)NC(=O)[C@H](CCCNC(=N)N)NC(=O)[C@@H](CCCNC(=N)N)NC(=O)[C@H](CCCNC(=N)N)NC(=O)[C@H](Cc4ccc5ccccc5c4)NC(=O)[C@@H](Cc4ccccc4)NC3=O)C(N)=O)c2)CSCC[C@@H](C(=O)N[C@@H](CCC(N)=O)C(=O)N[C@@H](CC(C)C)C(=O)N[C@H](C(=O)N[C@@H](CO)C(=O)NCCOCCOCC(=O)N[C@@H](CCCCNC(=O)c2ccc3c(c2)C(=O)OC32c3ccc4cc(O)ccc4c3Oc3c2ccc2cc(O)ccc32)C(N)=O)[C@@H](C)O)NC(=O)[C@H](Cc2c[nH]c3ccccc23)NC(=O)[C@H](Cc2ccc(O)cc2)NC(=O)[C@H](Cc2c[nH]cn2)NC1=O)[C@@H](C)O [Peptide 9, Ac-LTFhCHYWhCQLTS-miniPEG-K(NF)-NH2] (I: Ac-LTF[hCys]HYW[hCys]QLTS[AEEA]K(X1)-NH2 / II: cyclo(R[dR]E[dF][2Nal]R[dR]); linker I:4-I:8-II:3 via X2)	–	–
6	CC(=O)N[C@@H](CCC(=O)O)C(=O)N[C@H](C(=O)N[C@@H](Cc1ccccc1)C(=O)N[C@H]1CSCc2cc(cc(C(=O)NCCCC[C@H](NC(=O)COCCOCCNC(=O)CC[C@@H]3NC(=O)[C@@H](CCCNC(=N)N)NC(=O)[C@H](CCCNC(=N)N)NC(=O)[C@@H](CCCNC(=N)N)NC(=O)[C@H](CCCNC(=N)N)NC(=O)[C@H](Cc4ccc5ccccc5c4)NC(=O)[C@@H](Cc4ccccc4)NC3=O)C(N)=O)c2)CSC[C@@H](C(=O)N[C@@H](CCC(N)=O)C(=O)N[C@@H](CC(C)C)C(=O)N[C@H](C(=O)N[C@@H](CO)C(=O)NCCOCCOCC(=O)N[C@@H](CCCCNC(=O)c2ccc3c(c2)C(=O)OC32c3ccc4cc(O)ccc4c3Oc3c2ccc2cc(O)ccc32)C(N)=O)[C@@H](C)O)NC(=O)[C@H](Cc2c[nH]c3ccccc23)NC(=O)[C@H](Cc2ccc(O)cc2)NC(=O)[C@H](Cc2c[nH]cn2)NC1=O)[C@@H](C)O [Peptide 11] (I: Ac-ETFCHYWCQLTS[AEEA]K(X1)-NH2 / II: cyclo([2Nal]R[dR]R[dR]E[dF]); linker I:4-I:8-II:6 via X2)	–	–

Continued, compound first:

Compound	fold decrease of MDM2 binding affinity (MDM2 [2]) [fold]	Cellular Uptake (MFI^NF, %) (HeLa cells)	further results
COc1ccc(C2=N[C@@H](c3ccc(Cl)cc3)[C@@H](c3ccc(Cl)cc3)N2C(=O)N2CCNC(=O)C2)c(OC(C)C)c1 [Nutlin-3, reference compound]	–	–	effect on viability of WT p53 cells (HCT116 p53+/+): selectively killed the WT p53 cells in a dose-dependent manner
CC(=O)N[C@@H](CC(C)C)C(=O)N[C@H](C(=O)N[C@@H](Cc1ccccc1)C(=O)N[C@H]1CCSCC(=O)CSCC[C@@H](C(=O)N[C@@H](CCC(N)=O)C(=O)N[C@@H](CC(C)C)C(=O)N[C@H](C(=O)N[C@@H](CO)C(=O)NCCOCCOCC(=O)N[C@@H](CCCCNC(=S)Nc2ccc3c(c2)C(=O)OC32c3ccc(O)cc3Oc3cc(O)ccc32)C(N)=O)[C@@H](C)O)NC(=O)[C@H](Cc2c[nH]c3ccccc23)NC(=O)[C@H](Cc2ccc(O)cc2)NC(=O)[C@H](Cc2c[nH]cn2)NC1=O)[C@@H](C)O [Peptide 2] (Ac-LTF[hCys]HYW[hCys]QLTS[AEEA]K(FITC)-NH2; linker 4-8 via CH2COCH2)	–	–	effect on viability of WT p53 cells (HCT116 p53+/+): no significant effect; effect on viability of p53 mutant cells (HCT116 p53−/−): no significant effect
CC(=O)N[C@@H](CC(C)C)C(=O)N[C@H](C(=O)N[C@@H](Cc1ccccc1)C(=O)N[C@H]1CCSCC(=NOCC(=O)NCCCC[C@H](NC(=O)COCCOCCNC(=O)CC[C@@H]2NC(=O)[C@@H](CCCNC(=N)N)NC(=O)[C@H](CCCNC(=N)N)NC(=O)[C@@H](CCCNC(=N)N)NC(=O)[C@H](CCCNC(=N)N)NC(=O)[C@H](Cc3ccc4ccccc4c3)NC(=O)[C@@H](Cc3ccccc3)NC2=O)C(N)=O)CSCC[C@@H](C(=O)N[C@@H](CCC(N)=O)C(=O)N[C@@H](CC(C)C)C(=O)N[C@H](C(=O)N[C@@H](CO)C(=O)NCCOCCOCC(=O)N[C@@H](CCCCN)C(N)=O)[C@@H](C)O)NC(=O)[C@H](Cc2c[nH]c3ccccc23)NC(=O)[C@H](Cc2ccc(O)cc2)NC(=O)[C@H](Cc2c[nH]cn2)NC1=O)[C@@H](C)O [Peptide 4] (I: Ac-LTF[hCys]HYW[hCys]QLTS[AEEA]K-NH2 / II: cyclo([2Nal]R[dR]R[dR]E[dF]); linker I:4-I:8-II:6 via X3)	–	–	IC50 (MDM2 [1]): 220 nM
CC(=O)N[C@@H](CC(C)C)C(=O)N[C@H](C(=O)N[C@@H](Cc1ccccc1)C(=O)N[C@H]1CCSCC(=NOCC(=O)NCCCC[C@H](NC(=O)COCCOCCNC(=O)CC[C@@H]2NC(=O)[C@@H](CCCNC(=N)N)NC(=O)[C@H](CCCNC(=N)N)NC(=O)[C@@H](CCCNC(=N)N)NC(=O)[C@H](CCCNC(=N)N)NC(=O)[C@H](Cc3ccc4ccccc4c3)NC(=O)[C@@H](Cc3ccccc3)NC2=O)C(N)=O)CSCC[C@@H](C(=O)N[C@@H](CCC(N)=O)C(=O)N[C@@H](CC(C)C)C(=O)N[C@H](C(=O)N[C@@H](CO)C(=O)NCCOCCOCC(=O)N[C@@H](CCCCN)C(N)=O)[C@@H](C)O)NC(=O)[C@H](Cc2c[nH]c3ccccc23)NC(=O)[C@H](Cc2ccc(O)cc2)NC(=O)[C@H](Cc2c[nH]cn2)NC1=O)[C@@H](C)O [Peptide 5] (I: Ac-LTF[hCys]HYW[hCys]QLTS[AEEA]K-NH2 / II: cyclo([2Nal]R[dR]R[dR]E[dF]); linker I:4-I:8-II:6 via X3)	–	–	IC50 (MDM2 [1]): 201 nM
CC(=O)N[C@@H](CC(C)C)C(=O)N[C@H](C(=O)N[C@@H](Cc1ccccc1)C(=O)N[C@H]1CCSCc2cccc(c2)CSCC[C@@H](C(=O)N[C@@H](CCC(N)=O)C(=O)N[C@@H](CC(C)C)C(=O)N[C@H](C(=O)N[C@@H](CO)C(=O)NCCOCCOCC(=O)N[C@@H](CCCCNC(=O)c2ccc3c(c2)C(=O)OC32c3ccc4cc(O)ccc4c3Oc3c2ccc2cc(O)ccc32)C(N)=O)[C@@H](C)O)NC(=O)[C@H](Cc2c[nH]c3ccccc23)NC(=O)[C@H](Cc2ccc(O)cc2)NC(=O)[C@H](Cc2c[nH]cn2)NC1=O)[C@@H](C)O [Peptide 8, Ac-LTFhCHYWhCQLTS-miniPEG-K(NF)-NH2] (Ac-LTF[hCys]HYW[hCys]QLTS[AEEA]K(X1)-NH2; linker 4-8 via mXylylene)	–	–	fold improvement of MDM2 binding affinity (MDM2 [2]): 5 fold
Ac-ETFCHYWCQLTS-miniPEG-K(NF)-NH2 (Ac-ETFCHYWCQLTS-{miniPEG-K(NF)-NH2}; linker 4-8 via xylene; reading uncertain; also: printed as Ac-ETFCHYWCQLTS-miniPEG-K(NF)-NH2) [Peptide 10]	–	2.8% and 2.8 ± 0.1%	–
NF-βA-ENPECILDCHVQRVM-NH2 [16] ({NF-βAla}-ENPECILDCHVQRVM-NH2; bridge 5-9; not fully specified (bridges)) [Peptide 16]	–	2.5% and 2.5 ± 0.5%	–
NF-βA-NPECILDCHVQRVM-NH2 [18] ({NF-βAla}-NPECILDCHVQRVM-NH2; bridge 4-8; not fully specified (bridges)) [Peptide 18]	–	8.9% and 8.9 ± 2.9%	–
NF-βA-RKFCRLFC-NH2 [14] ({NF-βAla}-RKFCRLFC-NH2; bridge 4-8; not fully specified (bridges)) [Peptide 14]	–	47% and 47 ± 9%	–
